row,SMILES,melting point
1,"COc1ccccc1-n1c(=O)[nH]c2c(C(N)=O)nc(N[C@@H]3CCNC3)nc21 [Compound 105, (R)-9-(2-Methoxyphenyl)-8-oxo-2-(pyrrolidin-3-ylamino)-8,9-dihydro-7H-purine-6-carboxamide]",> 400 °C
2,"COc1ccc(-n2c(=O)[nH]c3c(C(N)=O)nc(-c4cccc(O)c4)nc32)c(C)c1 [Compound 57, 2-(3-Hydroxyphenyl)-9-(4-methoxy-2-methylphenyl)-8-oxo-8,9-dihydro-7H-purine-6-carboxamide]",355 to 357 °C
3,"NC(=O)c1nc(-c2cccc(O)c2)nc2c1[nH]c(=O)n2-c1ccccc1C1CCCCC1 [Compound 132, 9-(2-Cyclohexylphenyl)-2-(3-hydroxyphenyl)-8-oxo-8,9-dihydro-7H-purine-6-carboxamide]",> 270 °C
4,"COC[C@H]1CC[C@@H](n2c(=O)[nH]c3c(C(N)=O)nc(-c4cccc(O)c4)nc32)CC1 [Compound 159, 2-(3-Hydroxyphenyl)-9-(cis-4-(methoxymethyl)cyclohexyl)-8-oxo-8,9-dihydro-7H-purine-6-carboxamide]",324 to 326 °C
5,"COc1ccc(F)c(-n2c(=O)[nH]c3c(C(N)=O)nc(-c4cccc(O)c4)nc32)c1 [Compound 149, 9-(2-Fluoro-5-methoxyphenyl)-2-(3-hydroxyphenyl)-8-oxo-8,9-dihydro-7H-purine-6-carboxamide]",> 260 °C
6,"NC(=O)c1nc(-c2cccnc2O)nc2c1[nH]c(=O)n2-c1ccccc1C(F)(F)F [Compound 129, 2-(2-Hydroxypyridin-3-yl)-8-oxo-9-(2-(trifluoromethyl)phenyl)-8,9-dihydro-7H-purine-6-carboxamide]",331 to 335 °C
7,"COc1ccccc1-n1c(=O)[nH]c2c(C(N)=O)nc(NCCO)nc21 [Compound 116, 2-(2-Hydroxyethylamino)-9-(2-methoxyphenyl)-8-oxo-8,9-dihydro-7H-purine-6-carboxamide]",157 to 160 °C
8,"COc1cccc(-n2c(=O)[nH]c3c(C(N)=O)nc(-c4cccc(O)c4)nc32)c1F [Compound 148, 9-(2-Fluoro-3-methoxyphenyl)-2-(3-hydroxyphenyl)-8-oxo-8,9-dihydro-7H-purine-6-carboxamide]",> 260 °C
9,"CC(C)Cn1c(=O)[nH]c2c(C(N)=O)nc(-c3cccc(O)c3)nc21 [Compound 142, 2-(3-Hydroxyphenyl)-9-isobutyl-8-oxo-8,9-dihydro-7H-purine-6-carboxamide]",374 to 376 °C
10,"COc1ccccc1-n1c(=O)[nH]c2c(C(N)=O)nc(-c3cccc(C(N)=O)c3)nc21 [Compound 68, 2-(3-Carbamoylphenyl)-9-(2-methoxyphenyl)-8-oxo-8,9-dihydro-7H-purine-6-carbox amide]",338 to 339 °C
11,"NC(=O)c1nc(-c2cccc(O)c2)nc2c1[nH]c(=O)n2-c1cccc2c1CCCC2 [Compound 145, 2-(3-Hydroxyphenyl)-8-oxo-9-(5,6,7,8-tetrahydronaphthalen-1-yl)-8,9-dihydro-7H-purine-6-carboxamide]",> 250 °C
12,"COc1ccccc1-n1c(=O)[nH]c2c(C(N)=O)nc(Nc3ccccc3CO)nc21 [Compound 124, 2-(2-(Hydroxymethyl)phenylamino)-9-(2-methoxyphenyl)-8-oxo-8,9-dihydro-7H-purine-6-carboxamide]",159 to 162 °C
13,"NC(=O)c1nc(-c2cccc(O)c2)nc2c1[nH]c(=O)n2-c1ccccc1C1CCCC1 [Compound 153, 9-(2-Cyclopentylphenyl)-2-(3-hydroxyphenyl)-8-oxo-8,9-dihydro-7H-purine-6-carboxamide]",> 260 °C
14,"COc1ccccc1-n1c(=O)[nH]c2c(C(N)=O)nc(Nc3cccc(CO)c3)nc21 [Compound 123, 2-(3-(Hydroxymethyl)phenylamino)-9-(2-methoxyphenyl)-8-oxo-8,9-dihydro-7H-purine-6-carboxamide]",237 to 239 °C
15,"COc1ccccc1-n1c(=O)[nH]c2c(C(N)=O)nc(Nc3ccc(O)cc3)nc21 [Compound 46, 2-(4-Hydroxyphenylamino)-9-(2-methoxyphenyl)-8-oxo-8,9-dihydro-7H-purine-6-carboxamide]",223 to 224 °C
16,"CO[C@H]1CC[C@H](n2c(=O)[nH]c3c(C(N)=O)nc(-c4cccc(O)c4)nc32)CC1 [Compound 143, 9-(trans-4-Methoxycyclohexyl)-2-(3-hydroxyphenyl)-8-oxo-8,9-dihydro-7H-purine-6-carboxamide]",355 to 357 °C
17,"NC(=O)c1nc(-c2cccc(O)c2)nc2c1[nH]c(=O)n2C1CCc2ccccc21 (centres unmarked) [Compound 141, 9-(2,3-Dihydro-1H-inden-1-yl)-2-(3-hydroxyphenyl)-8-oxo-8,9-dihydro-7H-purine-6-carboxamide]",341 to 343 °C
18,"COc1ccccc1-n1c(=O)[nH]c2c(C(N)=O)nc(-c3ccc4[nH]c(SC)nc4c3)nc21 [Compound 138, 9-(2-Methoxyphenyl)-2-(2-(methylthio)-1H-benzo[d]imidazol-5-yl)-8-oxo-8,9-dihydro-7H-purine-6-carboxamide]",244 to 245 °C
19,"COc1ccccc1-n1c(=O)[nH]c2c(C(N)=O)nc(NC[C@@H]3CCCN3)nc21 [Compound 114, (S)-9-(2-Methoxyphenyl)-8-oxo-2-(pyrrolidin-2-ylmethylamino)-8,9-dihydro-7H-purine-6-carboxamide]",160 to 165 °C
20,"CC(C)Cc1ccccc1-n1c(=O)[nH]c2c(C(N)=O)nc(-c3cccc(O)c3)nc21 [Compound 161, 2-(3-Hydroxyphenyl)-9-(2-isobutylphenyl)-8-oxo-8,9-dihydro-7H-purine-6-carboxamide]",> 260 °C
21,"NC(=O)c1nc(-c2ccc(O)nc2)nc2c1[nH]c(=O)n2-c1ccccc1C(F)(F)F [Compound 100, 2-(6-Hydroxypyridin-3-yl)-8-oxo-9-(2-(trifluoromethyl)phenyl)-8,9-dihydro-7H-purine-6-carboxamide]",348 to 352 °C (dec.)
22,"COc1ccccc1-n1c(=O)[nH]c2c(C(N)=O)nc(-c3ccc4nc(C)[nH]c4c3)nc21 [Compound 122, 9-(2-Methoxyphenyl)-2-(2-methyl-1H-benzo[d]imidazol-6-yl)-8-oxo-8,9-dihydro-7H-purine-6-carboxamide]",270 °C
23,"NC(=O)c1nc(-c2cnc3nc[nH]c3c2)nc2c1[nH]c(=O)n2C1CCCCC1 [Compound 150, 9-Cyclohexyl-2-(1H-imidazo[4,5-b]pyridin-6-yl)-8-oxo-8,9-dihydro-7H-purine-6-carboxamide]",320 °C (dec.)
24,"NC(=O)c1nc(-c2cccc(O)c2)nc2c1[nH]c(=O)n2[C@H]1CCOC1 [Compound 163, (S)-2-(3-Hydroxyphenyl)-8-oxo-9-(tetrahydrofuran-3-yl)-8,9-dihydro-7H-purine-6-carboxamide]",354 to 356 °C
25,"CC(C)c1ccccc1-n1c(=O)[nH]c2c(C(N)=O)nc(-c3ccc(-c4ncc[nH]4)cc3)nc21 [Compound 133, 2-(4-(1H-Imidazol-2-yl)phenyl)-9-(2-isopropylphenyl)-8-oxo-8,9-dihydro-7H-purine-6-carboxamide]",340 °C (dec.)
26,"COc1ccccc1-n1c(=O)[nH]c2c(C(N)=O)nc(-c3cccc(C#N)c3)nc21 [Compound 55, 2-(3-Cyanophenyl)-9-(2-methoxyphenyl)-8-oxo-8,9-dihydro-7H-purine-6-carboxamide]",316 to 318 °C
